Results taken from patent US20240157017A1, “A MEDICAL DRESSING COMPRISING A BACTERIOSTATIC COMPOSITION” (Mölnlycke Health Care AB, priority 2021, published 2024).

Experiments:
[1] = test system: Pseudomonas aeruginosa (ATCC #15692, PaO1); experiment: Biofilm attachment to pegs of Calgary biofilm device (Promega BacTiter-GLO luminescence); type: cell-based
Procedure: (§1) An evaluation of possible bacteriostatic effect of deferiprone (3-6 mM) on the gram-negative bacterium Pseudomonas aeruginosa (ATCC #15692, PaO1) and connection to ability to form biofilm on a plastic surface, using the Calgary biofilm device (CBD) (Journal of Clinical Microbiology, June 1999, p. 1771-1776) was performed. This method utilizes 96-well microplates with lids containing 96 plastic cone shaped protrusions that extend into the wells of the plate. By submerging the plastic cones into bacterial solution, biofilm attachment to the pegs can be studied. Different concentrations of Deferiprone (0, 0.37, 0.75, 1.5, 3, 6 mM) were dissolved in Simulated Wound Fluid (SWF) and added to wells in the CBD plate. PaO1 was then inoculated at a total bacterial concentration of 1×10^6 CFU/ml and the lid was placed on the plate. Following incubation at 35° C. for 24, 48, 72 hrs, bacterial concentration from the wells were calculated using petrifilm and the plastic protrusions were analyzed for biofilm attachment using a luminescence kit that quantifies bacterial viability (Promega BacTiter-GLO).

[2] = test system: Klebsiella pneumoniae; experiment: Bacteriostatic effect on other gram-negative species in SWF; type: cell-based; settings: 3 mM deferiprone in SWF, 24 hrs at 35° C.
Procedure: (§2) The bacteriostatic effect of deferiprone was tested on other gram negative species than Pseudomonas aeruginosa in order to see if the bacteriostatic effect of deferiprone extends to other gram negative species. The following bacteria were tested: Actinobacter baumannii, Echerschia coli, Klebsiella pneumoniae +/−3 mM deferiprone in SWF for 24 hrs at 35° C. Bacterial start concentrations and concentrations after treatment were measured using petrifilm.

[3] = test system: Actinobacter baumannii; experiment: as above; type: cell-based; settings: 3 mM deferiprone in SWF, 24 hrs at 35° C.
Procedure: as §2

[4] = test system: Echerschia coli; experiment: as above; type: cell-based; settings: 3 mM deferiprone in SWF, 24 hrs at 35° C.
Procedure: as §2

[5] = test system: PaO1; experiment: Growth of planktonic PaO1 at sub-bacteriostatic concentrations in SWF; type: cell-based, Pseudomonas aeruginosa; settings: 1×10^6 CFU/ml, 72 hrs at 35° C.
[6] = test system: Pseudomonas aeruginosa (ATCC #15692, PaO1); experiment: Bacterial growth in wells of Calgary biofilm device (petrifilm); type: cell-based; settings: inoculum 1×10^6 CFU/ml, 24, 48, 72 hrs
Procedure: as §1

[7] = test system: PaO1 in a biofilm phenotype; experiment: Bacteriostatic effect in collagen (wound-like matrix) gels, bacteria in biofilm phenotype; type: cell-based, Pseudomonas aeruginosa; settings: 3 mM deferiprone, different start concentrations, 24 hrs at 35° C.
Procedure: Collagen gels were created and inoculated with 1×10^6 CFU/ml PaO1. Gels were incubated for 24 hrs at 35° C. in order to obtain bacteria in biofilm phenotype. New collagen gels +/−3 mM deferiprone were created and different bacterial start concentrations were inoculated into the gels. Following 24 hrs incubation at 35° C., the gels were solubilized and bacterial counts were measured using petrifilm.

[8] = test system: Pseudomonas aeruginosa (ATCC #15692, PaO1); experiment: Bacteriostatic effect on planktonic cultures with different bacterial inoculum sizes in SWF; type: cell-based; settings: 3 mM deferiprone in SWF
Procedure: An evaluation of possible bacteriostatic effect of deferiprone (3 mM) on the gram-negative bacterium Pseudomonas aeruginosa (ATCC #15692, PaO1) and effect of bacterial start concentrations was performed. Deferiprone (3 mM) was dissolved into Simulated Wound Fluid (SWF) (fetal bovine serum (FBS) and Peptone Water (PW) mixed in equal proportions, which correspond to the protein and electrolyte concentration of wound exudates (Emiko Aiba-Kojima, MD et.al Wound Rep Reg (2007) 15 511-520; Trengove, N et al Wound Rep Reg (1996) 4 1067-1927)). Bacterial concentrations ranging from 10−1×10^8 CFU/ml were inoculated into different test tubes +/− Deferiprone (3 mM) in SWF and incubated at 35° C. for 24 hrs before bacterial numbers were determined using petrifilm.

[9] = test system: clinical wound isolates of Pseudomonas aeruginosa; experiment: Effect on clinical wound isolates in SWF; type: cell-based; settings: 3 mM deferiprone in SWF, 24 hrs at 35° C., all isolates tested
Procedure: Bacteriostatic effect of deferiprone was tested on different clinical wound isolates of Pseudomonas aeruginosa. Isolates were typed according to known virulence factors (FIG. 9a) and subjected for treatment +/−3 mM deferiprone in SWF for 24 hrs at 35° C. Bacterial start concentrations and concentrations after treatment were measured using petrifilm.

[10] = test system: virulence factor pyoverdine; experiment: Pyoverdine levels in supernatants by LC-MS; type: cell-based, Pseudomonas aeruginosa; settings: 0.03 and 0.3 mM deferiprone in SWF, 72 hrs at 35° C.
Procedure: In order to evaluate if sub-bacteriostatic concentrations (<3 mM) of deferiprone have an effect on the virulence factor pyoverdine, supernatants of planktonically grown PaO1 (1×10^6 CFU/ml) +/− deferiprone at 0.3 and 0.03 mM in SWF were analyzed by LC-MS for pyoverdine after 72 hrs at 35° C.

## Cc1c(O)c(=O)ccn1C [deferiprone]
[1]; 3 mM deferiprone in SWF, 24, 48, 72 hrs
  biofilm formation on pegs of CBD plate: No biofilm was formed
[1]; 6 mM deferiprone in SWF, 24, 48, 72 hrs
  biofilm formation on pegs of CBD plate: No biofilm was formed
[1]; all other concentrations (0.37, 0.75, 1.5 mM) of deferiprone in SWF
  biofilm formation on pegs of CBD plate (read-out signal): full growth
[2]
  effect on growth of Klebsiella pneumoniae: sensitive
[3]
  effect on growth of Actinobacter baumannii: sensitive
[4]
  effect on growth of Echerschia coli: same bacteriostatic effects
[5]; 0.03 mM deferiprone in SWF
  effect on growth characteristics of PaO1: does not affect growth characteristics
[5]; 0.3 mM deferiprone in SWF
  effect on growth characteristics of PaO1: does not affect growth characteristics
[6]; 3 mM deferiprone in SWF
  effect on growth of PaO1 in CBD wells: bacteriostatic
[6]; 6 mM deferiprone in SWF
  effect on growth of PaO1 in CBD wells: bacteriostatic
[7]
  effect on growth of PaO1 in collagen gel: a bacteriostatic effect is observed
[8]; 35° C., 24 hrs
  bacterial concentration after 24 hrs: equals the bacterial start concentration
[8]; 35° C., 24 hrs, different start inoculums
  effect on growth of PaO1 in planktonic cultures: true bacteriostatic effect
[8]; different start inoculums
  toxicity to PaO1: non-toxic
[9]
  effect on growth of clinical wound isolates: bacteriostatic effects
[10]
  pyoverdine levels in supernatants: dose-dependent decrease
